Source: patent publication US10233188B2, “CDK2/4/6 inhibitors” (priority 2016, dated 2019)

How the values were obtained:
[1] = target: CDK6/Cyclin D1 (Homo sapiens (Human), UniProt Q00534); test: biochemical; details: CDK6_Ki (nM), non-phosphorylated CDK6/Cyclin D1, 2 mM ATP, Morrison fit
[2] = target: CDK2/Cyclin E1 (Homo sapiens (Human), UniProt P24941); test: biochemical; details: CDK2_Ki (nM), phosphorylated CDK2/Cyclin E1, 150 μM ATP, Morrison tight-binding fit
Method: The assay was initiated with the addition of ATP, following a fifteen minutes pre-incubation of enzyme and inhibitor at room temperature in the reaction mixture. The reaction was stopped after 45 minutes at room temperature by the addition of 50 μL of 80 mM EDTA, pH 7.5.

Chain of CDK6/Cyclin D1 (Q00534 whole entry): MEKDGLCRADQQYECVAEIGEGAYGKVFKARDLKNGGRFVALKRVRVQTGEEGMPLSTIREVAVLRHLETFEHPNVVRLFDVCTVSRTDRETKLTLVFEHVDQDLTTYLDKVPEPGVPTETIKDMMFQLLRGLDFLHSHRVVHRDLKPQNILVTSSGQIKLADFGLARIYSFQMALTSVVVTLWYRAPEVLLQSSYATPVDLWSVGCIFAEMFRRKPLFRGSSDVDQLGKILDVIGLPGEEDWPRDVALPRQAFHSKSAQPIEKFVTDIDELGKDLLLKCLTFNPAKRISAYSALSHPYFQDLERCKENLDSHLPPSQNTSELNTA
Chain of CDK6/Cyclin D1 (P24385 whole entry partner): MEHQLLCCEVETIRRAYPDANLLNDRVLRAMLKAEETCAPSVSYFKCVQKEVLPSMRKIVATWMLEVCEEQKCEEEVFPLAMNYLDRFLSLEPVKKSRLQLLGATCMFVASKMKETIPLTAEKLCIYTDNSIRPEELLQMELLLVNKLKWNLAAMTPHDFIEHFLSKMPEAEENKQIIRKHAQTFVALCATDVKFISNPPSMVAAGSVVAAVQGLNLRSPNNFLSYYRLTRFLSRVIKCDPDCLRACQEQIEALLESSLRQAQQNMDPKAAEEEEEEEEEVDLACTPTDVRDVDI

Row | Ki [1] | Ki [2] | Structure (SMILES)
1 | 0.76 nM | 0.46 nM | COCCS(=O)(=O)N1CCC(Nc2ncc3ccc(=O)n(C4CCCC4)c3n2)CC1 [Example 15, 8-cyclopentyl-2-({1-[(2-methoxyethyl)sulfonyl]piperidin-4-yl}amino)pyrido[2,3-d]pyrimidin-7(8H)-one]
2 | 1.82 nM | 6.03 nM | CS(=O)(=O)N1CCC(Nc2ncc3cc(Cl)c(=O)n([C@@H]4CC[C@@H](O)C4)c3n2)CC1 (single isomer, unassigned) [Example 170, (−)-6-chloro-8-[(1R*,3R*)-3-hydroxycyclopentyl]-2-{[1-(methylsulfonyl)piperidin-4-yl]amino}pyrido[2,3-d]pyrimidin-7(8H)-one]
3 | 3.55 nM | 4.07 nM | CS(=O)(=O)N1CC[C@H](Nc2ncc3cc(CC(N)=O)c(=O)n(C4CCCC4)c3n2)[C@@H](F)C1 (single isomer, unassigned) [Example 160, (−)-2-(8-cyclopentyl-2-{[(3S*,4S*)-3-fluoro-1-(methylsulfonyl)piperidin-4-yl]amino}-7-oxo-7,8-dihydropyrido[2,3-d]pyrimidin-6-yl)acetamide]
4 | 3.9 nM | 0.78 nM | CNS(=O)(=O)N1CCC(Nc2ncc3ccc(=O)n([C@H]4C[C@H](O)CC[C@@H]4F)c3n2)CC1 (single isomer, unassigned) [Example 219, (+)-4-({8-[(1S*,2S*,5R*)-2-fluoro-5-hydroxycyclohexyl]-7-oxo-7,8-dihydropyrido[2,3-d]pyrimidin-2-yl}amino)-N-methylpiperidine-1-sulfonamide]
5 | 0.13 nM | 1.74 nM | C[C@@H]1CCC[C@@H]1n1c(=O)c(CO)cc2cnc(NC3CCN(S(C)(=O)=O)CC3)nc21 [Example 51, 6-(hydroxymethyl)-8-[(1S,2R)-2-methylcyclopentyl]-2-{[1-(methylsulfonyl)piperidin-4-yl]amino}pyrido[2,3-d]pyrimidin-7(8H)-one]
6 | 0.45 nM | 1.57 nM | CS(=O)(=O)N1CCC(Nc2ncc3cc(CC(=O)O)c(=O)n(C4CCCC4)c3n2)CC1 [Example 147, (8-cyclopentyl-2-{[1-(methylsulfonyl)piperidin-4-yl]amino}-7-oxo-7,8-dihydropyrido[2,3-d]pyrimidin-6-yl)acetic acid]
7 | 1.34 nM | 1.31 nM | Cc1cc2cnc(NC3CCN(S(C)(=O)=O)CC3)nc2n([C@H]2CC[C@H](O)C2)c1=O (single isomer, unassigned) [Example 168, (+)-8-[(1R*,3R*)-3-hydroxycyclopentyl]-6-methyl-2-{[1-(methylsulfonyl)piperidin-4-yl]amino}pyrido[2,3-d]pyrimidin-7(8H)-one]
8 | 0.33 nM | 0.09 nM | CNS(=O)(=O)N1CCC(Nc2ncc3cc(C)c(=O)n([C@@H]4CCC[C@@]4(C)O)c3n2)CC1 (single isomer, unassigned) [Example 94, (−)-4-({8-[(1R*,2R*)-2-hydroxy-2-methylcyclopentyl]-6-methyl-7-oxo-7,8-dihydropyrido[2,3-d]pyrimidin-2-yl}amino)-N-methylpiperidine-1-sulfonamide]
9 | 0.66 nM | 3.89 nM | COCCc1cc2cnc(N[C@H]3CCN(S(C)(=O)=O)C[C@@H]3F)nc2n(C2CCCC2)c1=O (single isomer, unassigned) [Example 158, (−)-8-cyclopentyl-2-{[(3S*,4S*)-3-fluoro-1-(methylsulfonyl)piperidin-4-yl]amino}-6-(2-methoxyethyl)pyrido[2,3-d]pyrimidin-7(8H)-one]
10 | 2 nM | 0.55 nM | CS(=O)(=O)N1CCC(Nc2ncc3ccc(=O)n([C@H]4C[C@H](O)CC[C@@H]4F)c3n2)CC1 (single isomer, unassigned) [Example 217, (+)-8-[(1S*,2S*,5R*)-2-fluoro-5-hydroxycyclohexyl]-2-{[1-(methylsulfonyl)piperidin-4-yl]amino}pyrido[2,3-d]pyrimidin-7(8H)-one]
11 | 21 nM | 57.1 nM | Cc1cc2cnc(NC3CCN(S(C)(=O)=O)CC3)nc2n(C2CCCCC(O)C2)c1=O (single isomer, unassigned; isomer a) [Example 223, 8-(3-hydroxycycloheptyl)-6-methyl-2-{[1-(methylsulfonyl)piperidin-4-yl]amino}pyrido[2,3-d]pyrimidin-7(8H)-one-Isomer A]
12 | 7.82 nM | 19.2 nM | CS(=O)(=O)N1CCC(Nc2ncc3cc(Cl)c(=O)n([C@H]4CCC[C@H](O)C4)c3n2)CC1 (single isomer, unassigned) [Example 35, (−)-6-chloro-8-[(1R*,3R*)-3-hydroxycyclohexyl]-2-{[1-(methylsulfonyl)piperidin-4-yl]amino}pyrido[2,3-d]pyrimidin-7(8H)-one]
13 | 6.14 nM | 0.76 nM | C[C@]1(O)CCC[C@@H]1n1c(=O)c(CCO)cc2cnc(NC3CCN(S(C)(=O)=O)CC3)nc21 (single isomer, unassigned) [Example 123, (+)-6-(2-hydroxyethyl)-8-[(1R*,2R*)-2-hydroxy-2-methylcyclopentyl]-2-{[1-(methylsulfonyl)piperidin-4-yl]amino}pyrido[2,3-d]pyrimidin-7(8H)-one]
14 | 0.26 nM | 4.18 nM | CS(=O)(=O)N1CCC(Nc2ncc3cc(C(F)(F)F)c(=O)n(C4CCCC4)c3n2)CC1 [Example 148, 8-cyclopentyl-2-{[1-(methylsulfonyl)piperidin-4-yl]amino}-6-(trifluoromethyl)pyrido[2,3-d]pyrimidin-7(8H)-one]
15 | 0.82 nM | 0.09 nM | CNS(=O)(=O)N1CCC(Nc2ncc3ccc(=O)n([C@@H]4CCC[C@@H]4C)c3n2)CC1 [Example 44, N-methyl-4-({8-[(1R,2S)-2-methylcyclopentyl]-7-oxo-7,8-dihydropyrido[2,3-d]pyrimidin-2-yl}amino)piperidine-1-sulfonamide]
16 | 5.73 nM | 1.47 nM | C[C@]1(O)CCC[C@@H]1n1c(=O)c(Cl)cc2cnc(NC3CCN(S(N)(=O)=O)CC3)nc21 (single isomer, unassigned) [Example 129, (+)-4-({6-chloro-8-[(1R*,2R*)-2-hydroxy-2-methylcyclopentyl]-7-oxo-7,8-dihydropyrido[2,3-d]pyrimidin-2-yl}amino)piperidine-1-sulfonamide]
17 | 9.15 nM | 1.73 nM | CS(=O)(=O)N1CCC(Nc2ncc3cc(CC(N)=O)c(=O)n([C@@H]4CCC[C@@H](O)C4)c3n2)CC1 (single isomer, unassigned) [Example 213, (+)-2-(8-[(1R*,3R*)-3-hydroxycyclohexyl]-2-{[1-(methylsulfonyl)piperidin-4-yl]amino}-7-oxo-7,8-dihydropyrido[2,3-d]pyrimidin-6-yl)acetamide]
18 | 0.58 nM | 0.4 nM | C[C@@]1(O)CCC[C@H]1n1c(=O)c(Cl)cc2cnc(N[C@H]3CCN(S(C)(=O)=O)C[C@H]3F)nc21 (single isomer, unassigned) [Example 191, (−)-6-chloro-2-{[(3R*,4S*)-3-fluoro-1-(methylsulfonyl)piperidin-4-yl]amino}-8-[(1R,2R)-2-hydroxy-2-methylcyclopentyl]pyrido[2,3-d]pyrimidin-7(8H)-one]
19 | 0.85 nM | 0.12 nM | C[C@@H]1[C@H](O)CC[C@H]1n1c(=O)ccc2cnc(NC3CCN(S(C)(=O)=O)CC3)nc21 (single isomer, unassigned) [Example 201, (−)-8-[(1R*,2S*,3R*)-3-hydroxy-2-methylcyclopentyl]-2-{[1-(methylsulfonyl)piperidin-4-yl]amino}pyrido[2,3-d]pyrimidin-7(8H)-one]
20 | 9.77 nM | 1.98 nM | Cn1cc(S(=O)(=O)N2CCC(Nc3ncc4ccc(=O)n([C@H]5CCC[C@]5(C)O)c4n3)CC2)cn1 (single isomer, unassigned) [Example 83, (+)-8-[(1R*,2R*)-2-hydroxy-2-methylcyclopentyl]-2-({1-[(1-methyl-1H-pyrazol-4-yl)sulfonyl]piperidin-4-yl}amino)pyrido[2,3-d]pyrimidin-7(8H)-one]
21 | 14.3 nM | 6.28 nM | CS(=O)(=O)N1CCC(Nc2ncc3ccc(=O)n([C@@H]4C[C@@H](O)CC[C@H]4F)c3n2)CC1 (single isomer, unassigned) [Example 218, (−)-8-[(1S*,2S*,5R*)-2-fluoro-5-hydroxycyclohexyl]-2-{[1-(methylsulfonyl)piperidin-4-yl]amino}pyrido[2,3-d]pyrimidin-7(8H)-one]
22 | 1.06 nM | 0.24 nM | Cc1cc2cnc(NC3CCN(S(=O)(=O)NC4CCOCC4)CC3)nc2n([C@@H]2CCC[C@@]2(C)O)c1=O (single isomer, unassigned) [Example 96, (−)-4-({8-[(1R*,2R*)-2-hydroxy-2-methylcyclopentyl]-6-methyl-7-oxo-7,8-dihydropyrido[2,3-d]pyrimidin-2-yl}amino)-N-(tetrahydro-2H-pyran-4-yl)piperidine-1-sulfonamide]
23 | 0.94 nM | 2.37 nM | CS(=O)(=O)N1CCC(Nc2ncc3cc(C(F)F)c(=O)n([C@@H]4CC[C@@H](O)C4)c3n2)CC1 (single isomer, unassigned) [Example 133, (−)-6-(difluoromethyl)-8-[(1R*,3R*)-3-hydroxycyclopentyl]-2-{[1-(methylsulfonyl)piperidin-4-yl]amino}pyrido[2,3-d]pyrimidin-7(8H)-one]
24 | 3.84 nM | 0.69 nM | CNS(=O)(=O)N1CCC(Nc2ncc3cc(F)c(=O)n([C@@H]4CCC[C@@]4(C)O)c3n2)CC1 (single isomer, unassigned) [Example 124, (−)-4-({6-fluoro-8-[(1R*,2R*)-2-hydroxy-2-methylcyclopentyl]-7-oxo-7,8-dihydropyrido[2,3-d]pyrimidin-2-yl}amino)-N-methylpiperidine-1-sulfonamide]

Row | Structure (SMILES) | Ki [1] | Ki [2]
25 | C#CCCS(=O)(=O)N1CCC(Nc2ncc3cc(N)c(=O)n(C4CCCC4)c3n2)CC1 [Example 137, 6-amino-2-{[1-(but-3-yn-1-ylsulfonyl)piperidin-4-yl]amino}-8-cyclopentylpyrido[2,3-d]pyrimidin-7(8H)-one] | 6.3 nM | 4.08 nM
